Calls of active or inactive are those of the source. No cut-off for these calls is given here.

Format in all cases: functional, organism-based
Holding throughout (details): dose 50.0 µg

One assay relates to Bacillus subtilis. Put plainly: Antibacterial activity against Bacillus subtilis assessed as inhibition of bacterial growth at 50 ug incubated for 24 hrs by paper disc method.
For another assay, the system named is Staphylococcus aureus. The assay is described as follows: Antibacterial activity against Staphylococcus aureus assessed as inhibition of bacterial growth at 50 ug incubated for 24 hrs by paper disc method.
Another assay has as its system Escherichia coli. Put plainly: Antibacterial activity against Escherichia coli assessed as inhibition of bacterial growth at 50 ug incubated for 24 hrs by paper disc method.

On to `OCC(O)CO`, for which the result in the assay with Bacillus subtilis, in the assay with Staphylococcus aureus and in the assay on Escherichia coli was inactive.
On to `CC/C=C\C[C@@H]1C(=O)C=C[C@@H]1CCCCCCCC(=O)O`, for which the outcome with Bacillus subtilis and with Staphylococcus aureus was Active. Besides, the result in the assay with Escherichia coli was inactive.
Regarding `CC/C=C\C[C@H]1C(=O)CC[C@@H]1CC(=O)O`, the result in the assay on Bacillus subtilis, with Staphylococcus aureus and with Escherichia coli was inactive.
With `CC/C=C\C[C@@H]1C(=O)C=C[C@@H]1CCCCCCCC(=O)OCC(O)CO` (some centres not stated), the outcome in the assay on Bacillus subtilis and in the assay with Staphylococcus aureus was Active. The outcome in the assay on Escherichia coli was inactive.

(Values after ChEMBL document CHEMBL5634177, “Isolation and Structure Determination of cis-OPDA-α-Monoglyceride from Arabidopsis thaliana” (J Nat Prod, 2024).)
